Test results taken from PubChem BioAssay AID330 (DTP/NCI, 2004).
“And” between values parts separate entries of the source, which are not always exact repeats. Identical values can stand only once. Inconclusive results and toxic doses are left out. The calls were made as follows: active = survival T/C of 150% or more; inactive = T/C below 125% in these data.

Test system: P388 leukemia ip, CD2F1 mice, survival T/C
Test: NCI In Vivo Anticancer Drug Screen. Data for tumor model P388 Leukemia (intraperitoneal) in CD2F1 (CDF1) mice
Conditions: endpoint: median survival time, higher = longer survival
Procedure, shortened: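 Mice carrying the transplanted tumor received test compound or vehicle. Survival was recorded in each group, and the value is the treated-group measurement divided by that of the vehicle-treated control group.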

[1] = dose: 25.0 mg/kg/injection, schedule: Q01DX009 (ip), vehicle: saline with Tween-80
[2] = dose: 50.0 mg/kg/injection, schedule: Q01DX009 (ip), vehicle: saline with Tween-80
[3] = dose: 100.0 mg/kg/injection, schedule: Q01DX009 (ip), vehicle: saline with Tween-80
[4] = dose: 60.0 mg/kg/injection, schedule: Q01DX005 (ip), vehicle: Klucel (hydroxypropylcellulose) (HPC)
[5] = dose: 120.0 mg/kg/injection, schedule: Q01DX005 (ip), vehicle: Klucel (hydroxypropylcellulose) (HPC)
[6] = dose: 50.0 mg/kg/injection, schedule: Q01DX005 (ip), vehicle: saline
[7] = dose: 100.0 mg/kg/injection, schedule: Q01DX005 (ip), vehicle: saline
[8] = dose: 200.0 mg/kg/injection, schedule: Q01DX005 (ip), vehicle: saline
[9] = dose: 25.0 mg/kg/injection, schedule: Q01DX009 (ip), vehicle: water
[10] = dose: 50.0 mg/kg/injection, schedule: Q01DX009 (ip), vehicle: water
[11] = dose: 100.0 mg/kg/injection, schedule: Q01DX009 (ip), vehicle: water
[12] = dose: 200.0 mg/kg/injection, schedule: Q01DX009 (ip), vehicle: water
[13] = dose: 50.0 mg/kg/injection, schedule: Q01DX005 (ip), vehicle: saline with Tween-80
[14] = dose: 100.0 mg/kg/injection, schedule: Q01DX005 (ip), vehicle: saline with Tween-80
[15] = dose: 200.0 mg/kg/injection, schedule: Q01DX005 (ip), vehicle: saline with Tween-80
[16] = dose: 50.0 mg/kg/injection, schedule: Q01DX005 (ip), vehicle: Klucel (hydroxypropylcellulose) (HPC)
[17] = dose: 100.0 mg/kg/injection, schedule: Q01DX005 (ip), vehicle: Klucel (hydroxypropylcellulose) (HPC)
[18] = dose: 200.0 mg/kg/injection, schedule: Q01DX005 (ip), vehicle: Klucel (hydroxypropylcellulose) (HPC)
[19] = dose: 12.5 mg/kg/injection, schedule: Q01DX009 (ip), vehicle: water

Measured: T/C

Clc1ccc(SSN2CCCCC2)cc1
inactive: dose: 50.0 mg/kg/injection, schedule: Q01DX009 (ip), vehicle: saline 92 % of control | dose: 100.0 mg/kg/injection, schedule: Q01DX009 (ip), vehicle: saline 97 % of control | dose: 200.0 mg/kg/injection, schedule: Q01DX009 (ip), vehicle: saline 96 % of control

CC1(c2cccs2)NC(=O)NC1=O (configuration not stated)
inactive: [1] 100 % of control | [2] 109 % of control | [3] 98 % of control | dose: 200.0 mg/kg/injection, schedule: Q01DX009 (ip), vehicle: saline with Tween-80 104 % of control | dose: 400.0 mg/kg/injection, schedule: Q01DX009 (ip), vehicle: saline with Tween-80 101 % of control

CC1(c2ccccc2)Nc2ccccc2N(C(=O)c2ccccc2)C1c1ccccc1 (configuration not stated)
inactive: [4] 91 % of control | [5] 90 % of control

CC(C)(C)N=C(CCNC1CCCCC1)Nc1c(Cl)cccc1Cl
inactive: [2] 100 % of control | [3] 106 % of control

CC1CN(C2CCCCC2)CO1 (configuration not stated)
inactive: dose: 12.5 mg/kg/injection, schedule: Q01DX005 (ip), vehicle: saline 104 % of control and 105 % of control | dose: 25.0 mg/kg/injection, schedule: Q01DX005 (ip), vehicle: saline 104 % of control and 112 % of control | [6] 117 % of control and 118 % of control and 124 % of control | [7] 121 % of control and 124 % of control | [8] 109 % of control

O=C(N1CCOCC1)C12OC3CC(CC(C3)O1)O2
inactive: dose: 60.0 mg/kg/injection, schedule: Q01DX005 (ip), vehicle: saline 102 % of control | dose: 120.0 mg/kg/injection, schedule: Q01DX005 (ip), vehicle: saline 104 % of control | dose: 240.0 mg/kg/injection, schedule: Q01DX005 (ip), vehicle: saline 105 % of control

COc1cccc2c1C(=O)c1c(O)c3c(c(O)c1C2=O)CC(O)(C(C)O)CC3 (configuration not stated)
inactive: dose: 1.0 mg/kg/injection, schedule: Q01DX009 (ip), vehicle: Klucel (hydroxypropylcellulose) (HPC) 102 % of control | dose: 2.0 mg/kg/injection, schedule: Q01DX009 (ip), vehicle: Klucel (hydroxypropylcellulose) (HPC) 99 % of control | dose: 4.0 mg/kg/injection, schedule: Q01DX009 (ip), vehicle: Klucel (hydroxypropylcellulose) (HPC) 95 % of control | dose: 8.0 mg/kg/injection, schedule: Q01DX009 (ip), vehicle: Klucel (hydroxypropylcellulose) (HPC) 92 % of control

Cc1cc[n+](C)c(-c2ccccc2)c1
inactive: dose: 6.25 mg/kg/injection, schedule: Q01DX009 (ip), vehicle: saline 90 % of control | dose: 12.5 mg/kg/injection, schedule: Q01DX009 (ip), vehicle: saline 104 % of control | dose: 25.0 mg/kg/injection, schedule: Q01DX009 (ip), vehicle: saline 113 % of control

CCSC(C(O)C(O)C(O)C(O)CO)n1cnc2c(SC)ncnc21 (configuration not stated)
inactive: [9] 99 % of control | [10] 95 % of control | [11] 94 % of control | [12] 99 % of control | dose: 400.0 mg/kg/injection, schedule: Q01DX009 (ip), vehicle: water 97 % of control

O=C1C=CC(=O)C1=Cc1ccccc1
inactive: dose: 2.5 mg/kg/injection, schedule: Q04DX002 (ip), vehicle: saline with Tween-80 95 % of control | dose: 5.0 mg/kg/injection, schedule: Q04DX002 (ip), vehicle: saline with Tween-80 97 % of control

O=[N+]([O-])c1ccc(/C=C/S(=O)(=O)/C=C\c2ccccc2)cc1
inactive: [13] 101 % of control | [14] 97 % of control | [15] 88 % of control

Nc1ccc(N=Nc2ccc(S(=O)(=O)O)cc2)cc1
inactive: dose: 100.0 mg/kg/injection, schedule: Q04DX003 (ip), vehicle: saline with Tween-80 95 % of control | dose: 200.0 mg/kg/injection, schedule: Q04DX003 (ip), vehicle: saline with Tween-80 100 % of control | dose: 400.0 mg/kg/injection, schedule: Q04DX003 (ip), vehicle: saline with Tween-80 100 % of control

CCOP(=O)(O)C1CCCC(C)[N-]1.CCOP(=O)(O)C1CCCC(C)[N-]1.[Cu+2] (configuration not stated)
inactive: dose: 12.5 mg/kg/injection, schedule: Q04DX003 (ip), vehicle: Klucel (hydroxypropylcellulose) (HPC) 101 % of control | dose: 25.0 mg/kg/injection, schedule: Q04DX003 (ip), vehicle: Klucel (hydroxypropylcellulose) (HPC) 112 % of control

C[P+]1(C)CCc2c1ccc1ccccc21
inactive: [2] 102 % of control

CC1(C)CC2=NO[Se]3=C2C(=NO3)C1
inactive: dose: 1.56 mg/kg/injection, schedule: Q01DX009 (ip), vehicle: saline with Tween-80 104 % of control | dose: 3.12 mg/kg/injection, schedule: Q01DX009 (ip), vehicle: saline with Tween-80 102 % of control | dose: 6.25 mg/kg/injection, schedule: Q01DX009 (ip), vehicle: saline with Tween-80 104 % of control and 111 % of control | dose: 12.5 mg/kg/injection, schedule: Q01DX009 (ip), vehicle: saline with Tween-80 117 % of control

CCCCN(CC)CC(CC)Nc1cc(OC)cc2cccnc12 (configuration not stated)
inactive: [13] 102 % of control | [14] 95 % of control | [15] 101 % of control

CCOC(=O)c1ccccc1N1C(=O)c2ccccc2NP1(=O)Oc1ccccc1 (configuration not stated)
inactive: dose: 25.0 mg/kg/injection, schedule: Q01DX005 (ip), vehicle: Klucel (hydroxypropylcellulose) (HPC) 106 % of control | [16] 103 % of control | [17] 106 % of control | [18] 98 % of control

Cc1c[n+]([O-])ccc1Br
inactive: dose: 6.25 mg/kg/injection, schedule: Q01DX009 (ip), vehicle: water 99 % of control | [19] 90 % of control | [9] 100 % of control | [10] 101 % of control

COc1ccc2nc(C)cc(N=[N+]=[N-])c2c1
inactive: dose: 60.0 mg/kg/injection, schedule: Q01DX005 (ip), vehicle: saline with Tween-80 100 % of control | dose: 120.0 mg/kg/injection, schedule: Q01DX005 (ip), vehicle: saline with Tween-80 100 % of control | dose: 240.0 mg/kg/injection, schedule: Q01DX005 (ip), vehicle: saline with Tween-80 91 % of control

COc1cccc(C=Nc2cc(C)ccn2)c1O.COc1cccc(C=Nc2cc(C)ccn2)c1O.[Cu]
inactive: dose: 6.25 mg/kg/injection, schedule: Q01DX005 (ip), vehicle: saline with Tween-80 99 % of control | dose: 12.5 mg/kg/injection, schedule: Q01DX005 (ip), vehicle: saline with Tween-80 100 % of control | dose: 25.0 mg/kg/injection, schedule: Q01DX005 (ip), vehicle: saline with Tween-80 96 % of control

COc1ccc(/C(=C(\c2ccccc2)[N+](=O)[O-])c2ccc(OCCN3CCCC3)cc2)cc1
inactive: [1] 104 % of control | [2] 100 % of control

COc1ccc2nc3cc(Cl)ccc3c(Nc3ccccc3NC(C)=O)c2n1
inactive: [19] 116 % of control | [9] 116 % of control | [10] 119 % of control | [11] 114 % of control | [12] 115 % of control

O=S(=O)(CS(=O)(=O)c1ccccc1Br)c1ccccc1Br
inactive: dose: 30.0 mg/kg/injection, schedule: Q01DX005 (ip), vehicle: Klucel (hydroxypropylcellulose) (HPC) 100 % of control | [4] 100 % of control | [5] 100 % of control | dose: 240.0 mg/kg/injection, schedule: Q01DX005 (ip), vehicle: Klucel (hydroxypropylcellulose) (HPC) 100 % of control

CS(=O)(=O)OCC(F)(F)COS(C)(=O)=O
inactive: [13] 94 % of control | [14] 100 % of control | [15] 99 % of control

C1CCN2CSCCCC2C1 (configuration not stated)
inactive: [6] 100 % of control | [7] 104 % of control | [8] 111 % of control

CN(C)c1ccc(N=Nc2cc3c4ccccc4ccc3c3ccccc23)cc1
inactive: dose: 50.0 mg/kg/injection, schedule: Q01DX009 (ip), vehicle: Klucel (hydroxypropylcellulose) (HPC) 109 % of control | dose: 100.0 mg/kg/injection, schedule: Q01DX009 (ip), vehicle: Klucel (hydroxypropylcellulose) (HPC) 114 % of control | dose: 200.0 mg/kg/injection, schedule: Q01DX009 (ip), vehicle: Klucel (hydroxypropylcellulose) (HPC) 117 % of control

CCOC(=O)C1=C(C)NC(=O)NC1c1ccc([N+](=O)[O-])s1 (configuration not stated)
inactive: [16] 87 % of control | [17] 97 % of control | [18] 91 % of control
